{"source": "patent US20200239398A1", "about": "“METHYLENE-CYCLOALKYLACETATE DERIVATIVES AND THEIR USE IN TREATMENT OF NEUROTROPIC CONDITIONS” (Yissum Research Development Company of The Hebrew …, priority 2018, published 2020)", "key": {"[1]": {"molecular_target": "T1, Adrenergic Receptor α2A (ADRA2A) (Homo sapiens, UniProt P08913)", "T1 sequence (P08913 1-465)": "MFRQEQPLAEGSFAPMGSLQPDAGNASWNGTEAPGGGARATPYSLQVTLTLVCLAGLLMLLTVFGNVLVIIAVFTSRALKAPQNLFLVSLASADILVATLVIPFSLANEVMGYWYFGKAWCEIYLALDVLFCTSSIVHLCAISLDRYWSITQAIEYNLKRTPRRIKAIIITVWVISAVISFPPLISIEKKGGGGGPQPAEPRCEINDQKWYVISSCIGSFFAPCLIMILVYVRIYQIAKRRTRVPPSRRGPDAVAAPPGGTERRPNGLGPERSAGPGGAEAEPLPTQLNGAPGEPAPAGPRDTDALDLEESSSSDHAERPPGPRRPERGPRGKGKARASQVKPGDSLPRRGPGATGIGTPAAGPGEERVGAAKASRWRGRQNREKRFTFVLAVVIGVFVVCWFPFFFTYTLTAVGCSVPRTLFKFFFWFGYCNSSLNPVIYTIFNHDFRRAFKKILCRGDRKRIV", "assay": "SAFETYscan ADRA2A cAMP", "type": "cell-based", "conditions": "10 μM HU-MCA-13"}, "[2]": {"system": "dorsal root ganglion (DRG) sensory neurons", "assay": "Neurite outgrowth in dorsal root ganglion (DRG) explants", "type": "cell-based, mice", "protocol": "To perform these experiments, about 10 dorsal root ganglia (DRGs) were excised under sterile conditions and transferred to 0.25% Type IV collagenase (Sigma-Aldrich-Merck) in Dulbecco's Modified Eagle Medium (DMEM) at 37° C. for 45 min, followed by a 20-min incubation with 0.025% trypsin in DMEM, to digest the associated connective tissue surrounding the neurons. After plating the ganglia onto collagen (50 μg/ml)/laminin mixture (5 μg/ml)-coated tissue culture wells for 24 h, DRG neurons were cultured for additional 1-7 days in fresh Neurobasal A/B27 containing either 50 ng/ml NGF (positive control), blank medium (DMSO 1%) control and HU-MCA-13. The cultures were photographed; thereafter the ganglia were immune-stained for neuronal tubulin and again photographed using a fluorescent microscope. Image analysis was performed by a researcher blinded to the experimental conditions. Neurite outgrowth distance measured in micrometers, was quantified as for PC12 cultures."}}, "note": "Where two headings read alike, the source gives them in different places."}
{"smiles": "C=CCC1CCC[C@@H](CCC(=O)O)C1=C", "note": "(some centres unmarked) [Compound 13]", "values": [{"measurement": "Maximal Response", "setting": "[1]; Agonist mode", "result": 24.55, "unit": "%"}, {"measurement": "Emax", "setting": "[1]; Antagonist mode, read-out: Maximal Response", "result": 0, "unit": "%"}, {"measurement": "Emax", "setting": "[1]; read-out: Maximal Response, Agonist mode", "result": 24.5, "unit": "%"}, {"measurement": "neurite outgrowth, neurotropic effect (in words)", "setting": "[2]; HU-MCA-13 5 μM, 5 days", "result": "strong neurite outgrowth, neurotropic effect like NGF"}, {"measurement": "maturity of neurites (cytoskeletal-tubulin protein staining)", "setting": "[2]; HU-MCA-13 compared with NGF-treated ganglia", "result": "less mature than in NGF-treated ganglia"}]}
